Reference: the Deep4Chem optical property database
Each block holds one compound with its values, some of them ahead of it.

Assay: solvent given as SMILES

Structure (SMILES): CCCCCCc1ccc2c3c(ccc2c1)O[B-](F)(F)[N+](c1ccc([N+]2=Cc4c(ccc5cc(CCCCCC)ccc45)O[B-]2(F)F)cc1)=C3
absorption maximum (in C1CCOC1): 425 nm
absorption maximum (in CC#N): 422 nm
absorption maximum (in Cc1ccccc1): 436 nm
absorption maximum (in ClCCl): 430 nm

Structure (SMILES): Cc1cc(C)c(B(c2ccc(N(c3ccccc3)c3ccccc3)cc2)c2c(C)cc(C)cc2C)c(C)c1
absorption maximum (in Cc1ccccc1): 380 nm

Structure (SMILES): CCCCOC(=O)c1cc(Cl)c2c3c(Cl)cc4c5c(cc(Cl)c(c6c(Oc7ccc(OC)cc7)cc(C(=O)OCCCC)c1c26)c53)C(=O)N(c1c(C(C)C)cccc1C(C)C)C4=O
absorption maximum (in Cc1ccccc1): 519 nm

Structure (SMILES): COc1cc(OC)cc(C2=C(c3cc(OC)c(OC)c(OC)c3)C3=Nc4c(-c5cc(OC)c(OC)c(OC)c5)c(-c5cc(OC)cc(OC)c5)c(-c5ccc(C(C)(C)C)cc5)n4[B-](F)(F)[N+]3=C2c2ccc(C(C)(C)C)cc2)c1
absorption maximum (in Cc1ccccc1): 674 nm

Structure (SMILES): CCOC(=O)CSc1nc(-c2ccc(OC)cc2)c(C)c(C#N)c1C#N
absorption maximum (in c1ccccc1): 374 nm

Structure (SMILES): N#Cc1nn(-c2c(Cl)cccc2Cl)nc1N1CCCC1
absorption maximum (in CC#N): 317 nm

Structure (SMILES): F[B-]1(F)n2c(c3cccc4cccc2c43)=Nc2cccc[n+]21
absorption maximum (in C1CCOC1): 468 nm
absorption maximum (in CC#N): 460 nm
absorption maximum (in CCCCCC): 473 nm
absorption maximum (in Cc1ccccc1): 472 nm
absorption maximum (in ClCCl): 438 nm

Structure (SMILES): CCCCCCOc1ccc(N(c2ccc(OCCCCCC)cc2)c2ccc(-c3sc(-c4ccc(N(c5ccc(OCCCCCC)cc5)c5ccc(OCCCCCC)cc5)cc4)c4nc(-c5ccccc5)c(-c5ccccc5)nc34)cc2)cc1
absorption maximum (in C1CCOC1): 601 nm
absorption maximum (in CC(C)=O): 592 nm
absorption maximum (in CCOC(C)=O): 594 nm
absorption maximum (in CCOCC): 600 nm
absorption maximum (in CN(C)C=O): 598 nm
absorption maximum (in Cc1ccccc1): 600 nm
absorption maximum (in ClC(Cl)Cl): 601 nm
absorption maximum (in ClCCl): 600 nm

Structure (SMILES): COc1cc2c3cc(OC)c(OC)cc3c3cc4c(C)cc(=O)oc4cc3c2cc1OC
absorption maximum (in C1CCOC1): 366 nm
absorption maximum (in CO): 364 nm
absorption maximum (in CS(C)=O): 370 nm
absorption maximum (in Cc1ccccc1): 366 nm
absorption maximum (in ClC(Cl)Cl): 368 nm

Structure (SMILES): O=P1(c2ccccc2)C(c2ccc(C(F)(F)F)cc2)=Cc2ccccc21 (stereo not drawn)
absorption maximum (in C1CCOC1): 342 nm

Structure (SMILES): FC(F)(F)C(F)(F)C(F)(F)C1=NC2=C(Br)C=C3c4cc(Br)c5nc(C(F)(F)C(F)(F)C(F)(F)F)nc6c(Br)cc(c4c56)=C4C=C(Br)C(=N1)C2C34 (stereo not drawn)
absorption maximum (in C1CCOC1): 475 nm

Structure (SMILES): C(=C\c1ccc(-c2ccncc2)cc1)/c1ccc(-c2ccncc2)cc1
absorption maximum (in ClCCl): 345 nm

Structure (SMILES): FC(F)(F)C(F)(F)C(F)(F)C(F)(F)C(F)(F)C(F)(F)CCOc1nnc(Cl)nn1
absorption maximum (in ClCCl): 519 nm
absorption maximum (in OCC(F)(F)F): 519 nm

Structure (SMILES): c1cc2c3c(c1)ccc1[n+]3[B-]3(Oc4cccc5ccc6[n+](c45)[B-](O2)(O3)n2c-6cc3c4ccccc4c4ccccc4c32)n2c-1cc1c3ccccc3c3ccccc3c12
absorption maximum (in ClCCl): 472 nm

Structure (SMILES): Clc1ccc(/C=C(\c2ccccc2)c2nc3ccccc3o2)cc1
absorption maximum (in C1CCCCC1): 330 nm
absorption maximum (in CO): 330 nm

Structure (SMILES): c1ccc(N(c2ccccc2)c2ccc(-c3ncc(-c4cnc(-c5ccc(N(c6ccccc6)c6ccccc6)cc5)s4)s3)cc2)cc1
absorption maximum (in CO): 422 nm

Structure (SMILES): CC(C)(C)c1cc(-c2cc3c(cc(-c4cc(C(C)(C)C)cc(C(C)(C)C)c4)n3-c3ccc(C(=C(c4ccccc4)c4ccccc4)c4ccccc4)cc3)n2-c2ccc(C(=C(c3ccccc3)c3ccccc3)c3ccccc3)cc2)cc(C(C)(C)C)c1
absorption maximum (in ClCCl): 337 nm

Structure (SMILES): C/N=N/C
absorption maximum (in CCO): 340 nm

Structure (SMILES): CN(C)c1cc(C#N)c(N(C)C)c(C#N)c1
absorption maximum (in C1CCCCC1): 387.45 nm
absorption maximum (in C1CCOC1): 390.47 nm
absorption maximum (in C1COCCO1): 391.08 nm
absorption maximum (in CC1COC(=O)O1): 394.48 nm
absorption maximum (in CC#N): 390.93 nm
absorption maximum (in CC(C)=O): 389.86 nm
absorption maximum (in CC(C)OC(C)C): 386.7 nm
absorption maximum (in CCC#N): 391.08 nm
absorption maximum (in CCC(C)C): 385.21 nm
absorption maximum (in CCCCCC): 386.7 nm
absorption maximum (in CCCCCCCCO): 393.39 nm
absorption maximum (in CCCCCOCCCCC): 388.5 nm
absorption maximum (in CCCCOC(C)=O): 389.86 nm
absorption maximum (in CCCCOCCCC): 387.6 nm
absorption maximum (in CCCOCCC): 389.86 nm
absorption maximum (in CCO): 391.7 nm
absorption maximum (in CCOC(C)=O): 389.71 nm
absorption maximum (in CCOCC): 390.62 nm
absorption maximum (in CN(C)C=O): 393.55 nm
absorption maximum (in CO): 392.31 nm
absorption maximum (in CS(C)=O): 396.83 nm
absorption maximum (in Cc1ccccc1): 395.26 nm
absorption maximum (in ClCCCl): 394.48 nm
absorption maximum (in ClCCl): 397.3 nm
absorption maximum (in N#Cc1ccccc1): 399.36 nm
absorption maximum (in O): 386.85 nm
absorption maximum (in OCC(O)CO): 403.39 nm
absorption maximum (in c1ccccc1): 395.73 nm

Structure (SMILES): CC(C)[Si](C#Cc1c2cc3ccccc3cc2c(C#C[Si](C(C)C)(C(C)C)C(C)C)c2nc3ccccc3nc12)(C(C)C)C(C)C
absorption maximum (in CCCCCC): 693 nm
absorption maximum (in ClCCl): 697 nm

Structure (SMILES): CCOC(=O)CSc1nc(-c2ccccc2)c(C)c(C#N)c1C#N
absorption maximum (in C1COCCO1): 350 nm
absorption maximum (in CC#N): 365 nm
absorption maximum (in CCO): 367 nm
absorption maximum (in CCOC(C)=O): 366 nm
absorption maximum (in ClC(Cl)Cl): 376 nm
absorption maximum (in c1ccccc1): 372 nm

Structure (SMILES): CC1=NN(c2ccccc2)C(=O)/C1=C\c1cn(-c2ccccc2)nc1-c1ccc([N+](=O)[O-])cc1
absorption maximum (in C1CCOC1): 343 nm
absorption maximum (in C1COCCO1): 361 nm
absorption maximum (in CCO): 362 nm
absorption maximum (in CCOC(C)=O): 359 nm
absorption maximum (in CN(C)C=O): 361 nm
absorption maximum (in CO): 360 nm
absorption maximum (in CS(C)=O): 364 nm
absorption maximum (in Cc1ccccc1): 364 nm
absorption maximum (in ClC(Cl)Cl): 363 nm

The remaining lines, values ahead:

absorption maximum (in CC#N): 451 nm
Structure (SMILES): COC(=O)/C=C/c1sc(-c2ccc(N(C)C)cc2)c(-c2ccc(OC)cc2)c1O

absorption maximum (in ClCCl): 382 nm
Structure (SMILES): CC(C)(C)c1ccc2c(c1)c1cc(C(C)(C)C)ccc1n2-c1ccc(C#Cc2ccc(C#Cc3ccc(C=C(C#N)C#N)cc3)cc2)cc1

absorption maximum (in CCO): 590 nm
Structure (SMILES): CC/[NH+]=c1\cc2oc3cc(NCCC(=O)NC(C)C(=O)OC)c4ccccc4c3nc-2cc1C (stereo not drawn)

absorption maximum (in CC#N): 379 nm
Structure (SMILES): N#C/C(=C\c1ccc(C#N)cc1)c1nc(-c2ccccc2)c(-c2ccccc2)s1

absorption maximum (in ClCCl): 500 nm
Structure (SMILES): CCCCCCn1c(=O)c2c3[nH]c4ccccc4sc3c3c(=O)n(CCCCCC)c(=O)c3c2c1=O

absorption maximum (in ClCCl): 440 nm
Structure (SMILES): O=[N+]([O-])c1ccc([N+]2=CC3=C(O[B-]2(F)F)c2ccccc2SC3)cc1

absorption maximum (in ClCCl): 462 nm
Structure (SMILES): CCCCN(CCCC)c1ccc(C#Cc2cc(C#Cc3c(F)c(F)c(F)c(F)c3F)c(C#Cc3ccc(N(CCCC)CCCC)cc3)cc2C#Cc2c(F)c(F)c(F)c(F)c2F)cc1

absorption maximum (in ClCCl): 299.5 nm
Structure (SMILES): CCCCCCCCCCn1c(-c2cc(-c3nc4ccccc4n3CCCCCCCCCC)cc(-c3nc4ccccc4n3CCCCCCCCCC)c2)nc2ccccc21

absorption maximum (in CO): 627 nm
absorption maximum (in CS(C)=O): 637 nm
absorption maximum (in O): 626 nm
Structure (SMILES): CCCN1/C(=C/C=C(/C=C/C2=[N+](CCC)c3ccccc3C2(C)C)c2cc[n+](C)cc2)C(C)(C)c2ccccc21

absorption maximum (in C1CCOC1): 738 nm
Structure (SMILES): COc1ccccc1C1=[N+]2C(=Cc3c4cc5ccccc5cc4c(-c4ccccc4OC)n3[B-]2(F)F)c2cc3ccccc3cc21

absorption maximum (in ClCCl): 347 nm
Structure (SMILES): F[B-]1(F)Oc2ccc(Br)cc2-c2c3c(c4c([n+]21)CCc1ccccc1-4)CCc1ccccc1-3

absorption maximum (in CC#N): 328 nm
absorption maximum (in CCOC(C)=O): 328 nm
absorption maximum (in CN(C)C=O): 332 nm
absorption maximum (in CS(C)=O): 336 nm
absorption maximum (in c1ccccc1): 328 nm
Structure (SMILES): CCOC(=O)CN(CC(=O)OCC)c1ccc(-c2cc(-c3ccccn3)nc(-c3ccccn3)c2)cc1

absorption maximum (in C1CCCCC1): 384 nm
absorption maximum (in CC#N): 390 nm
absorption maximum (in CC(C)O): 392 nm
absorption maximum (in CO): 393 nm
absorption maximum (in CS(C)=O): 403 nm
absorption maximum (in ClC(Cl)Cl): 392 nm
absorption maximum (in c1ccccc1): 392 nm
Structure (SMILES): CN(C)c1ccc2nc(-c3ccc(C(=O)OC(C)(C)C)cc3)sc2c1

absorption maximum (in CCO): 540 nm
absorption maximum (in O): 548 nm
Structure (SMILES): CN(C)c1ccc2c(-c3ccc(C(=O)[O-])cc3C(=O)[O-])c3ccc(=[N+](C)C)cc-3oc2c1

absorption maximum (in C1CCCCC1): 334 nm
absorption maximum (in C1COCCO1): 336 nm
absorption maximum (in CC#N): 328 nm
absorption maximum (in CC(C)(C)O): 338 nm
absorption maximum (in CC(C)O): 338 nm
absorption maximum (in CCCCCC): 333 nm
absorption maximum (in CCCCO): 340 nm
absorption maximum (in CCOC(C)=O): 334 nm
absorption maximum (in CN(C)C=O): 338 nm
absorption maximum (in CO): 343 nm
absorption maximum (in ClCCl): 331 nm
absorption maximum (in O): 330 nm
Structure (SMILES): COc1ccc(C(=O)/C=C2\C(=O)Nc3ccccc32)c(OC)c1

absorption maximum (in C1CCCCC1): 409 nm
absorption maximum (in CC#N): 409 nm
absorption maximum (in CO): 407 nm
absorption maximum (in ClCCl): 412 nm
Structure (SMILES): COc1c2ccccc2c(OC)c2c1c1cccc(OC)c1n2C

absorption maximum (in O): 558 nm
Structure (SMILES): CC1(C)C2=C3C=C4C5=[N+](CCC4OC3CCN2c2ccc(CC(=O)NCCCCCCO)cc21)c1ccc(S(=O)(=O)[O-])cc1C5(C)C (stereo not drawn)

absorption maximum (in C1CCCCC1): 593 nm
absorption maximum (in CCOC(C)=O): 596 nm
Structure (SMILES): CC1=[N+]2C(=C(c3ccc(N(c4ccccc4)c4ccccc4)cc3)c3ccc(C)n3[B-]2(F)F)C=C1c1cc2n(c1)[B-](F)(F)[N+]1=CC=CC1=C2c1c(C)cc(C)cc1C

absorption maximum (in CO): 533 nm
Structure (SMILES): O=C(O)CCCCCn1c2ccc(Br)cc2c(=O)c2cc3c(cc21)c(=O)c1cc(Br)ccc1n3CCCCCC(=O)O

absorption maximum (in C1CCCCC1): 581 nm
absorption maximum (in CC#N): 571 nm
absorption maximum (in CCO): 577 nm
absorption maximum (in CCOC(C)=O): 573.5 nm
absorption maximum (in CO): 574.5 nm
absorption maximum (in OCC(F)(F)F): 569 nm
Structure (SMILES): Cc1ccc(C2=C3C=C(I)C(I)=[N+]3[B-](F)(F)n3c2cc(I)c3I)cc1

absorption maximum (in C1CCOC1): 408 nm
absorption maximum (in CCCCCC): 402 nm
absorption maximum (in ClC(Cl)Cl): 404 nm
absorption maximum (in ClCCl): 414 nm
Structure (SMILES): CN1C(=O)c2cccc3c(-n4c5ccccc5c5ccccc54)ccc(c23)C1=O

absorption maximum (in CC#N): 606 nm
absorption maximum (in CS(C)=O): 616 nm
absorption maximum (in ClC(Cl)Cl): 619 nm
Structure (SMILES): C#CCn1c2ccccc2c2cc(/C=C/c3c(Cl)c(C)c4n3[B-](F)(F)[N+]3=C(C)C(Cl)=C(C)C3=C4c3ccc(I)cc3)ccc21
